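Five concentrations, 48 hours, 96-well plates. Abbreviation: GI50, concentration required for 50% inhibition of growth.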 The source made the active and inactive calls. Cut-off read from the data, not from the text of the source: active = GI50 up to about 1.1 µM and inactive = higher.

Test systems include MDA-N; IGROV-1; HCT-15; U-251; HOP-92; HOP-62; SF-539; SK-MEL-28; SK-MEL-5; Hs-578T; TK-10; NCI-H226; EKVX; OVCAR-4; NCI-H460; SN12C; SF-268; RXF 393; SW-620; NCI/ADR-RES.
Common to all, as to assay: NCI anticancer screen, dose series, 48 h

As for `CN(C)C=O.O=C(Nc1nnn[nH]1)c1nc(O)cc(-c2ccccc2)n1`, the GI50 in the assay on MDA-N is > 100 µM (inactive); with IGROV-1, > 100 µM (inactive); in the assay with HCT-15, above 100 µM; in the assay on U-251, > 100 µM (inactive); with HOP-92, > 100 µM (inactive); in the assay on HOP-62 it was > 100 µM (inactive). The GI50 with SF-539, in the assay with SK-MEL-28, in the assay with SK-MEL-5, in the assay with Hs-578T, in the assay on TK-10 and in the assay with NCI-H226 was > 100 µM (inactive) each time. For the same molecule, the GI50 in the assay with EKVX, with OVCAR-4, with NCI-H460, with SN12C, in the assay with SF-268 and in the assay with RXF 393 was > 100 µM (inactive) each time. For the same molecule, the GI50 in the assay with SW-620 and in the assay on NCI/ADR-RES was > 100 µM (inactive) each time.

As to `CC1=C/C(=C(/c2ccc(O)c(C)c2)c2ccccc2C(=O)O)C=CC1=O`, the GI50 in the assay with MDA-N is 18.7 µM (inactive); with IGROV-1, 18.1 µM (inactive); in the assay with HCT-15, 21.4 µM; with U-251 it was 18.2 µM (inactive); with HOP-92, 20.3 µM (inactive); in the assay with HOP-62 it was 19 µM (inactive). The GI50 was 19 µM (inactive) in the assay on SF-539; 20.4 µM (inactive) in the assay on SK-MEL-28; 20.4 µM (inactive) with SK-MEL-5; 25.4 µM (inactive) in the assay on Hs-578T; 17.3 µM (inactive) in the assay on TK-10; 23.1 µM (inactive) with NCI-H226. Further, the GI50 with EKVX is 19.4 µM (inactive); in the assay with OVCAR-4 it was 18.1 µM (inactive); in the assay on NCI-H460, 31.5 µM (inactive); in the assay on SN12C, 19.6 µM (inactive); in the assay on SF-268, 25.2 µM (inactive); with RXF 393 it was 17.4 µM (inactive). The GI50 in the assay with SW-620 is 19 µM (inactive); with NCI/ADR-RES, 31 µM (inactive).

`O=C1C=CC(=O)c2c1ccc1c3ccccc3n(Cc3cccc([N+](=O)[O-])c3)c21`: the GI50 in the assay with MDA-N was 16 µM (inactive); in the assay on IGROV-1 it was 22.9 µM (inactive); in the assay on HCT-15, 21.5 µM; with U-251 it was > 89.5 µM (inactive); in the assay on HOP-92, 20.1 µM (inactive); in the assay on HOP-62 it was > 100 µM (inactive). Further, the GI50 in the assay on SF-539 is > 54 µM (inactive); in the assay with SK-MEL-28, > 43.6 µM (inactive); in the assay with SK-MEL-5 it was 53.3 µM (inactive); in the assay on Hs-578T, > 71.9 µM (inactive); with TK-10, 20 µM (inactive); with NCI-H226, 99.3 µM (inactive). The GI50 in the assay with EKVX is > 100 µM (inactive); with OVCAR-4, 23.8 µM (inactive); with NCI-H460, > 95.9 µM (inactive); in the assay on SN12C, 21.8 µM (inactive); in the assay on SF-268, 39.6 µM (inactive); in the assay on RXF 393, 22.5 µM (inactive). The GI50 in the assay on SW-620 was 11.5 µM (inactive); with NCI/ADR-RES, 37.8 µM (inactive).

Take `COc1ccccc1C1(c2c(OC(C)C)c(=O)c2=O)SCCCS1`: the GI50 with MDA-N is > 100 µM (inactive); in the assay on IGROV-1, > 100 µM (inactive); in the assay with HCT-15 it was above 100 µM; in the assay on U-251 it was > 100 µM (inactive); in the assay on HOP-92, > 100 µM (inactive); with HOP-62, > 100 µM (inactive). In addition, the GI50 in the assay on SF-539 was > 100 µM (inactive); with SK-MEL-28 it was 87.1 µM (inactive); in the assay on SK-MEL-5, > 100 µM (inactive); in the assay on Hs-578T, > 100 µM (inactive); in the assay on TK-10 it was > 100 µM (inactive); in the assay on NCI-H226 it was > 100 µM (inactive). Besides, the GI50 in the assay with EKVX, with OVCAR-4, in the assay on NCI-H460, in the assay with SN12C, in the assay with SF-268 and in the assay with RXF 393 was > 100 µM (inactive) each time. Moreover, the GI50 with SW-620 and in the assay on NCI/ADR-RES was > 100 µM (inactive) in each case.

The values above are taken from ChEMBL document CHEMBL1201862, “PubChem BioAssay data set” (2004).
